As a reminder, the MTD is the largest dose that counted as tolerated. High values mean better tolerability, low ones poorer tolerability.

Several values for one entry are separate records, joined by “and”; a condition that tells them apart may be missing. Equal values may be shown once. Read-outs that look alike come from different tables or passages of the source. A value given as a limit tells only on which side of the number the result lay.

Series [1] concerns Pancreatic Adenocarcinoma. Conditions: cited from earlier work.
Series [2] is described as follows: Clinical safety and tolerability of tdsRNA (rintatolimod). It is filed as in vivo, human. As to conditions: for Tolerability: twice weekly infusions. An excerpt:
tdsRNA (e.g., Rintatolimod) has undergone extensive clinical and preclinical testing. […] Favorable safety profiles have been seen for intraperitoneal, intravenous, and intranasal routes of administration of tdsRNA.
Our analysis and previous studies have shown that […]® has a very good safety profile. […]® lacks the potent toxicities seen with most chemotherapeutic agents. See, e.g., […]®'s safety profile in other parts of this disclosure. […] Thus, we believe the ideal use of […]® would be to continue therapy beyond 18 weeks until time of tumor progression. We believe this approach could add an additional 4 to 6 months or more to the overall survival (OS) benefit.

For series [3] the following is noted: cynomolgus monkey, in vivo, 6 mg/kg. Here is the method:
(§1) Ampligen® has undergone extensive preclinical safety testing including 18 animal (mice, rat, rabbit, dog, and monkey) toxicity studies; 6 animal (rat and rabbit) reproductive studies, and 2 animal (rat, monkey) PK/PD studies. The MTD for humans and NHPs is >10 mg/kg and >36 mg/kg, respectively.

Series [4] in a line: Maximum tolerated dose (MTD) in NHP. It is filed as in vivo. As to conditions: NHP (Cynomolgus monkey). The procedure: as §1
Details of series [5]: species or system Humans. As to conditions: human, in vivo, 6 mg/kg. The procedure: as §1
Series [6] relates to metastatic or locally advanced pancreatic carcinoma. Nature of the series: Survival of pancreatic cancer patients given […] following FOLFIRINOX vs matched historical control group. As to conditions: n = 27 per group, from start of FOLFIRINOX, control: FOLFIRINOX only (historical); for Median Overall Survival: AMPLIGEN i.v. 200 mg twice weekly for 2 weeks, then 400 mg twice weekly, 18 weeks total, following FOLFIRINOX
It is filed as in vivo, human. Here is the method:
In this case, the tdsRNA used is rintatolimod ([…]®) which is a form of tdsRNA. Included in the study were adults with metastatic or locally advanced pancreatic carcinoma following FOLFIRINOX treatment. The tdsRNA treatment was rintatolimod ([…]®) administered i.v. 200 mg twice weekly for 2 weeks, then 400 mg twice weekly for a total treatment duration of 18 weeks.
The experiment compared survival in the experimental […]® cohort (n=27) compared to a historical control group (n=27) matched for age, gender, disease stage and number of cycles of FOLFIRINOX.
To be selected for the study, the patient should be over 18 years in age and diagnosed with locally advanced pancreatic cancer (LAPC) or metastasized pancreatic cancer. These LACP patients were not candidates for surgical resection. The patient should have completed the standard of care (e.g., A FOLFIRINOX regimen) and the patient should have no progressive disease (as detected by computed tomography (CT) 6 weeks after treatment). Patients with second malignancy (simultaneous), on immunosuppressive medication, or having liver-renal insufficiency were excluded.
Survival analysis was performed as follows. A group of 136 patients was assembled from a retrospective database, including all patients who received FOLFIRINOX between 2012-2018. Variables that were matched include age (+ or −10 years); gender; disease stage (locally advanced pancreatic cancer (LAPC), metastasized, metastasized after resection); and the number of FOLFIRINOX cycles to obtain a historical control group that was well-matched to the experimental group. The outcomes were determined from the start of FOLFIRINOX, and the overall survival and progression-free survival were calculated.

A short description of series [7]: Maximum tolerated dose (MTD) in humans. In kind it is in vivo. The procedure:
as §1

Where [8] appears, read: clinical trials enrolling over 1,200 patients, over 100,000 doses.

Take `O=C(c1cc(Cc2n[nH]c(=O)c3ccccc23)ccc1F)N1CCN(C(=O)C2CC2)CC1` [Lynparza]: in series [1] (Second-Line Therapy, median OS over the control arm), the OS Over Control was 3.6 months.

Consider `Nc1ccn([C@@H]2O[C@H](CO)[C@@H](O)C2(F)F)c(=O)n1` [gemcitabine], for which, in series [1] (First-Line Therapy, median overall survival), the “OS Months” value is 6.7 Months and 6.0 Months and 6.8 Months.

For the molecule rIn.r(C12U)n, in series [2] (setting [8]), the Drug-related deaths entry is “no drug-related deaths”. The Tolerability entry was “generally well-tolerated” in series [2] (setting [8]); “generally well-tolerated” in series [2] (clinical trials enrolling over 1,200 patients, over 100,000 doses, listed as Ampligen); “well-tolerated” in series [2] (clinical trials enrolling over 1,200 patients, over 100,000 doses, listed as Rintatolimod). Further, the Cumulative toxicities result in series [2] (human, in vivo) is “no evidence of any cumulative toxicities”. Moreover, the “Serious adverse events compared to placebo” value in series [2] (two placebo-controlled, randomized studies) is listed as “no increase in serious adverse events compared to placebo”. Besides, the Half-Life stood at 22.9 min in series [3] and 36.5 min in series [5]. In addition, the MTD was 100 mg/kg in series [4] (based on 4 weeks); more than 36 mg/kg in series [4] (based on 24 weeks); 17 mg/kg in series [7] (based on 1200 mg BIW (cancer)); more than 10 mg/kg in series [7] (based on randomized, well-controlled 24 week study in HIV disease). In addition, the “Median Progression-free Survival” value in series [6] (AMPLIGEN following FOLFIRINOX) came to 12.0 months. The “Median Overall Survival” value was 19.0 months and 19 months in series [6]; 19 months in series [6] (listed as Ampligen).

The values above are taken from US20220387472A1, “COMPOSITIONS AND METHODS FOR TREATING CANCER” (AIM ImmunoTech Inc., priority 2020, published 2022).
